Results on one molecule are retold here after article PMC9146698, “Mammalian Brain Ca^2+ Channel Activity Transplanted into Xenopus laevis Oocytes” (Membranes, 2022).

The subject of the experiment is T1, GABA receptor.
T1 construct: gene Gabra1
As to the kind of experiment: two-electrode voltage clamp, membrane-transplanted oocytes. It is filed as cell-based, Mus musculus. The conditions noted are these: block of GABA-induced Cl- current; n = 5; data not shown. In general terms: Two-electrode voltage clamp holds a large cell at a set potential and records current.

On to `CN1CCc2cc3c(cc2[C@H]1[C@@H]1OC(=O)c2c1ccc1c2OCO1)OCO3` [biccuculine], for which the “% block at 100 μM” value is recorded as 87 ± 2%.
